Measured values from patent US20210299162A1, “MOLECULAR HYDROGEN-CONTAINING COMPOSITION FOR PREVENTION AND/OR IMPROVEMENT OF ENCEPHALITIS AND/OR MENINGITIS AND SYMPTOM ASSOCIATED WITH THE ENCEPHALITIS AND/OR MENINGITIS” (MiZ Company Limited, priority 2020, published 2021).

How the values were obtained:
meningococcal meningitis = conditions: person
Procedure: The case patient is person. The patient presenting with pyrexia and disturbance of consciousness was admitted to hospital urgently. […] The patient initiated inhalation, which was performed for one to three hours per day for one month using a hydrogen gas generator “Jobs-α” (a hydrogen concentration, 4% to 6%; generation rate of hydrogen gas, 200 mL/min) manufactured by MiZ Company Limited.

[1] = room temperature, normal pressure; also printed as 1.6 mg/L; cited from earlier work

Structure (SMILES) | symptoms (pyrexia, disturbance of consciousness) (meningococcal meningitis; administered for 17 days) | course after completion of the administration (meningococcal meningitis; after 17 days of administration) | clinical course (meningococcal meningitis; relapse after ceftriaxone, inhalation one to three hours per day for one month, hydrogen concentration 4% to 6%, 200 mL/min (Jobs-α)) | brain MRI (ventriculitis) (meningococcal meningitis; after hydrogen inhalation one to three hours per day for one month, hydrogen concentration 4% to 6%) | concentration dissolved in water (solubility) [1]
CO/N=C(\C(=O)N[C@@H]1C(=O)N2C(C(=O)O)=C(CSc3nc(=O)c(=O)[nH]n3C)CS[C@H]12)c1csc(N)n1 [Ceftriaxone, reference compound] | resolved symptoms | relapse |  |  | 
[HH] [hydrogen, molecular hydrogen] |  |  | began to improve | improvement of ventriculitis | approximately 1.6 ppm
